Laboratory results from patent US20190240296A1, “TREATMENT OF DISEASES MEDIATED BY VASCULAR HYPERPERMEABILITY” (AMPIO PHARMACEUTICALS, INC., priority 2016, published 2019).

Tested on: acetylated α-tubulin in HREC
Assay: Immunofluorescence staining for acetylated α-tubulin in HREC
Type: cell-based, human
Conditions: 3 hours
Description: HREC were grown on glass bottom 24-well tissue culture plates (Cellvis, Mountain View, Calif.) coated with 2% gelatin in EGM-2. The medium was then exchanged with a combination of 500 μL saline, 2× working dilutions of compounds to be tested prepared in saline, or LMWFHSA together with 500 μl EGM-2 and incubated for the indicated times. Following treatment, the cells were fixed using 10% neutral buffered formalin for 10 minutes and permeabilized with 0.1% Triton X-100 in PBS for 5 minutes. 4% goat serum (ThermoFisher Scientific) prepared in PBS was used to block the cells for 1 hour then the cells were exposed to anti-acetylated α-tubulin clone 6-11B-1 antibody (1:1000; Santa Cruz Biotechnology, Santa Cruz, Calif.) in blocking solution overnight at 4° C. Alexa fluor 488 conjugated anti-mouse IgG (1:1000; Invitrogen, Carlsbad, Calif.) was then added for 1 hour followed by DAPI counter staining (300 nM in PBS; ThermoFisher Scientific) for 5 minutes. Randomly selected frames were photographed on an inverted microscope (Zyla sCMOS camera; Andor, South Windsor, Conn. and eclipse Ti; Nikon, Melville, N.Y.) and fluorescent intensity measured using ImageJ software (http://imagej.nih.gov/ij) (Schneider C A, et al. NIH Image to ImageJ: 25 years of image analysis. Nature methods 2012; 9:671-675). For normalization, the number of DAPI staining nuclei was determined for each frame and data presented as median FU/DAPI objects.

SMILES	inhibition at 10 µM (Homo sapiens, 10 μM LY294002 with LMWFHSA, four experiments in triplicate, 95% CI 29-19, read-out: reduction of LMWFHSA-induced α-tubulin acetylation (percent inhibition)) [%]	increase of α-tubulin acetylation versus saline-DMSO controls (10 μM SB203580 with LMWFHSA, 95% CI 63-51) [%]	increase of α-tubulin acetylation versus LMWF5A-DMSO treated cells (10 μM SB203580 with LMWFHSA, 95% CI 236-208) [%]
O=c1cc(N2CCOCC2)oc2c(-c3ccccc3)cccc12 [LY294002]	24		
C[S+]([O-])c1ccc(-c2nc(-c3ccncc3)c(-c3ccc(F)cc3)[nH]2)cc1 (stereo not drawn) [SB203580]		57	222
